Assay results published in patent publication US6046231A, “Use of 4'-bromoflavone in a cancer chemopreventative composition and method” (The Board of Trustees of the University of Illinois, priority 1999, dated 2000).
Read-outs that look alike come from different tables or passages of the source.

Tests used:
[1] = system: quinone reductase (QR), Hepa 1c1c7 cells; test: Quinone reductase (QR) induction in Hepa 1c1c7 cells; format: cell-based, murine; details: for CI, chemoprevention index (IC50/CD): 2880 min
Text: This test was used because the specific activity of QR rises concomitantly with other phase II enzymes in many animal tissues in response to various chemopreventive agents. The study included natural and synthetic B-ring substituted flavones, as well as biosynthetic precursor chalcones and flavanones.
Determination of Quinone Reductase Activity in Cell Cultures. To determine the potency of inducers, Hepa 1c1c7 murine hepatoma cells as described in the Gerhauser publication were placed in 96-well plates at a density of 1×10^4 cells/ml in 200 μl of medium. After a preincubation period of 24 hr, the media were decanted and 190 μl fresh media were added to each well. Ten (10) μl test agents dissolved in 10% DMSO (final concentration of DMSO is 0.5%) with a serial 2-fold dilutions were introduced to each well, and the plates were incubated for an additional 48 hours. Specific QR activity was determined by measuring the NADPH-dependent menadiol-mediated reduction of 3-(4, 5-dimethylthiazo-2-yl)-2,5-diphenyltetrazolium bromide to blue formazan formed per mg protein per minute. Protein was determined in an identical set of test plates by staining with crystal violet. Hepa 1c1c7 cells retain many characteristics of normal issues, particularly the capacity for carcinogen activation and metabolism. They are amenable to precise control of environmental, nutritional, and hormonal factors. […] Induction of QR activity was calculated by comparing the QR specific activity of agent-treated cells with that of solvent-treated cells, and a plot of ratio was generated. CD represents the concentration required to double QR induction. Chemopreventive index (CI) is an indexing value generated by comparing CD with IC50 (concentration for 50% inhibition of cell viability) values.
Induction of Quinone Reductase in Hepa 1c1c7 Cells. […] Modification of the B-ring of chalcones, flavanones, and flavones was hypothesized to induce torsion of the B-ring, and, therefor, simulate out-of-plane distortions characteristic of polycyclic aromatic hydrocarbons, such as DMBA. Induction of QR activity was calculated by comparing the QR specific activity of agent-treated cells with the QR specific activity of solvent-treated cells, and a plot of ratios was generated. CD represents the concentration required for a double fold of induction. CI (Chemopreventive Index) is a value obtained by comparing CD with IC50 (concentration for 50% inhibition of cell viability in […]).

Hepa 1c1c7 cells = test: Hepa 1c1c7 cell viability (cytotoxicity); format: cell-based, murine; details: Mus musculus
cytochrome P4501A1 = biological target: T1, cytochrome P4501A1 (Rattus norvegicus, UniProt P00185); test: biochemical
T1 sequence (P00185 1-524): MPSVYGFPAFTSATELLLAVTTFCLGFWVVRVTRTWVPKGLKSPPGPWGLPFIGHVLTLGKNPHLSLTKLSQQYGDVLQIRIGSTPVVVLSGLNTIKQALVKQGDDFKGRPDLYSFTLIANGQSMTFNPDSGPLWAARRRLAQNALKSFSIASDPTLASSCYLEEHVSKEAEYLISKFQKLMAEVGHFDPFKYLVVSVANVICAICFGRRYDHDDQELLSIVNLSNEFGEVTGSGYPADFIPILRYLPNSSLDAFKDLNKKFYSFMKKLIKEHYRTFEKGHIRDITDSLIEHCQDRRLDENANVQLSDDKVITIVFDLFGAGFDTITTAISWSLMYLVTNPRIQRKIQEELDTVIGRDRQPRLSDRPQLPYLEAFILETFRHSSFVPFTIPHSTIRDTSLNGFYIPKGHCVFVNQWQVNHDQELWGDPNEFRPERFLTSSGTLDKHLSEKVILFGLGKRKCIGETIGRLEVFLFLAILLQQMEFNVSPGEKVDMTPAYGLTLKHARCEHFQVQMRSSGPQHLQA
Protocol: Inhibition of DMBA-induced Cytochrome P4501A1 Activity. Female Sprague Dawley rats (43 days of age) were treated with DMBA (i.g.), and liver microsomes were isolated through differential centrifugation. Cytochrome P4501A1 activity was monitored by assessing EROD activity. Briefly, 200 μl of microsomal protein (2 mg/ml) were added to a reaction mixture containing 640 μl of 0.05 M Tris-HCl buffer (pH 7.5), 100 μl of BSA (10 mg/ml in Tris buffer), 20 μl of 0.25 M MgCl2, 40 μl of cofactor solution (0.3282 g of NADP and 1.417 g of glucose 6-phosphate in 40 ml of 1.15% KCl), 2.5 units of glucose 6-phosphate dehydrogenase, 10 μl of substrate (1 mg of ethoxyresorufin in 10 ml of methanol) and 10 μl of various concentrations of 4'-BF in DMSO (α-naphthoflavone as positive control; DMSO as negative control). After incubating at 37° C. for 4 min, the reactions were terminated by the addition of 2 ml of methanol. Samples were then centrifuged for 20 min at 2,000×g. and 200 μl of the supernatant fractions were transferred to 96-well plates and read on a spectrofluorimeter (500 nm excitation and 585 nm emission). Assays were conducted in triplicate and the percent of inhibition was calculated as: [1-(sample A-blank)/(DMSO A-blank)]×100.

[2] = Mus musculus, Hepa-1c1c7, 48 h, Hepa 1c1c7 cells, 48 h, read-out: CD, concentration to double the specific activity of QR
[3] = Hepa-1c1c7, Hepa 1c1c7 cells, read-out: IC50, concentration for 50% inhibition of cell viability
[4] = Hepa 1c1c7 cells, 48 h, read-out: CD, concentration to double the specific activity of QR
[5] = Mus musculus, Hepa-1c1c7, 48 h, read-out: CD, concentration to double the specific activity of QR, Hepa 1c1c7 cells, 48 h
[6] = Hepa-1c1c7, read-out: IC50, concentration for 50% inhibition of cell viability

SMILES	Cq ([1]; Hepa 1c1c7 cells)	CI, chemoprevention index (IC50/CD) [1]	EC (2-fold) [1, 2] [µM]	IC50 (Hepa 1c1c7 cells; [3]) [µM]	EC (2-fold) [1, 4] [µM]	EC (2-fold) [1, 5] [µM]	IC50 (Hepa 1c1c7 cells; [6]) [µM]	EC (2-fold) ([1]; Hepa 1c1c7 cells, 48 h, listed as 3'-chloroflavone, read-out: CD, concentration to double the specific activity of QR) [µM]	IC50 (cytochrome P4501A1) [µM]
O=C1CC(c2cccc3ccccc23)Oc2ccccc21 (centres unmarked)	8.6 µM	24	1.8	43					
O=c1cc(-c2ccccc2F)oc2ccccc12 [2'-Fluoroflavone]	10 µM	104	0.8	> 83	0.80				
COc1cccc(OC)c1/C=C/C(=O)c1ccccc1O [2'-Hydroxy-2,6-dimethoxychalcone]	3.7 µM	26	0.53	14	0.54				
COc1ccccc1/C=C/C(=O)c1ccccc1O [2'-Hydroxy-2-methoxychalcone]	1.8 µM	55	0.31	17					
Cc1ccccc1/C=C/C(=O)c1ccccc1O [2'-Hydroxy-2-methylchalcone]	9.0 µM	54	0.67	36					
O=C(/C=C/c1ccccc1[N+](=O)[O-])c1ccccc1O [2'-Hydroxy-2-nitrochalcone]	3.6 µM	37	0.3	11					
O=C(/C=C/c1cccc(C(F)(F)F)c1)c1ccccc1O [2'-Hydroxy-3-trifluoromethylchalcone]	0.55 µM	> 23	< 0.55	12.8					
O=C(/C=C/c1ccc(C(F)(F)F)cc1)c1ccccc1O [2'-Hydroxy-4-trifluoromethylchalcone]	1 µM	> 100	< 0.55	55					
COc1ccccc1C1CC(=O)c2ccccc2O1 (centres unmarked) [2'-Methoxyflavanone]	6.9 µM	> 125	0.63	> 79					
Cc1ccccc1C1CC(=O)c2ccccc2O1 (centres unmarked) [2'-Methylflavanone]	6.8 µM	81	1	81	1.00				
COc1ccccc1-c1cc(=O)c2ccccc2o1 [2'-methoxyflavone]			0.01 to 1						
O=C(/C=C/c1ccccc1Br)c1ccccc1O [2-Bromo-2'-hydroxychalcone]	2.0 µM	21				0.53	11		
O=c1cc(-c2cccc(Br)c2)oc2ccccc12 [3'-Bromoflavone]	4.4 µM	32	0.1	3.2					
O=c1cc(-c2cccc(Cl)c2)oc2ccccc12 [3'-Chloroflavone]	toxic	> 40			< 0.58		23	0.27	
O=c1cc(-c2cccc(F)c2)oc2ccccc12 [3'-Fluoroflavone]	1.24 µM	63	0.67	42					
O=C(/C=C/c1cccc(Br)c1)c1ccccc1O [3-Bromo-2'-hydroxychalcone]	8.2 µM	16	1.3	21					
O=C1CC(c2ccc(Br)cc2)Oc2ccccc21 (centres unmarked) [4'-Bromoflavanone]	11 µM	27	2.3	63					
O=c1cc(-c2ccc(Cl)cc2)oc2ccccc12 [4'-Chloroflavone]	0.66 µM	> 5000			0.02	0.016	> 78		
O=c1cc(-c2ccc(F)cc2)oc2ccccc12 [4'-Fluoroflavone]	32 µM	> 24	3.4	> 83					
O=c1cc(-c2ccc(C(F)(F)F)cc2)oc2ccccc12 [4'-Trifluoromethylflavone]	0.1 µM	3000	0.03	90					
O=C(/C=C/c1ccc(Br)cc1)c1ccccc1O [4-Bromo-2'-hydroxychalcone]	66 µM	4				18	66		
O=C(/C=C/c1ccccc1)c1ccccc1 [Chalcone, reference compound]				33					
O=c1cc(-c2ccccc2)oc2ccccc12 [Flavone]	8.3 µM	42	2.5	106					
O=c1cc(-c2ccccc2)oc2c1ccc1ccccc12 [a-naphthoflavone, α-naphthoflavone, reference compound]									0.09
